# Data reported in patent publication US20240327423A1, “A SERIES OF PYRROLE DERIVATIVES AND THEIR PREPARATION METHOD AND THERAPEUTIC USE” (SHENZHEN SUNGENING BIO-MEDICAL CO., LTD, priority 2020, published 2024).
# Several values for one entry are separate records, joined by “and”; a condition that tells them apart may be missing. Equal values may be shown once. Read-outs that look alike come from different tables or passages of the source.
# Key:
# [1] = test system: Aspergillus flavus (ATCC 204304); test: Measurement of minimum inhibitory concentration (MIC), ATCC 204304; format: cell-based; settings: ATCC204304; Aspergillus flavus ATCC 204304, 35° C., 48 hours
# Description: New streaks are made with glycerol stock solution of the strains of Aspergillus fumigatus (ATCC MYA-4609/AF 293/CBS 101355) on Sabouraud's dextrose agar (SDA), incubate at 35° C. and a humidity of 40-70% for 72 hours. Other strains are processed as the same as AF293.
# RPMI1640: one packet of RPMI1640 powder is dissolved in 1 L purified water and mixed well, add 0.165M MOPS, adjust the pH to 7.0, sterilize by filtration with 0.22 um membrane, and store at 4° C. for no more than 3 months.
# Physiological saline: weigh 9 g of sodium chloride powder and dissolve in 1 L of purified water, and mixed well. Sterilize at 121° C. for 30 min, store at room temperature (RT) for no more than 1 week.
# Dissolve the test compound and stock solution of one control compound with DMSO and obtain solutions at a concentration of 12.8 mg/mL
# The maximum concentration of each compound is 0.8 mg/mL (e.g., 150 μL of dimethyl sulfoxide+10 uL of 12.8 mg/mL compound/control). Column 1 is filled with 40 μL of compound and columns 2 to 11 with 20 μL of dimethyl sulfoxide. Transfer 20 μL of compound from column 1 to column 2 to dilute the concentration. Repeat the above steps up to column 11 to give 2× serial dilutions.
# 2 μL of the above 2× serial dilutions are injected into each hole of the corresponding test plate using a multichannel pipette.
# Drop 5 ml of saline on the Aspergillus fumigatus SDA plate. The spores were carefully wiped off from the surface of the plate with an L-shaped coating rod. Then the suspension is transferred into a sterile tube. After shaking, let the tube stand for 5 to 10 minutes. Count the number of spores in the upper suspension with a hemocytometer and check the purity. Adjust the inoculum concentration to 0.2-2.5×10^4 spores/mL.
# Inject 198 μL of diluted inoculum into each holes of the corresponding test plate using a multichannel pipette.
# Incubate at 35° C. for 48 hours.
# To facilitate scoring of the presence or absence of growth on the wall, a magnifying glass is used. The tested 96-well microplates were photographed and the optical density at 530 nm is read with an enzyme marker (Tecan Spark).
# [2] = Pharmacokinetic test in SD rats, single oral administration; format: in vivo; settings: 10 mg/kg, single oral administration 10 mg/kg, test compound mixed with F901318, plasma; for Cmax: read-out: Cmax; for Tmax: read-out: Tmax; for half-life: read-out: T½ (converted)
# Description: Pharmacokinetic study is performed on SD rats receiving single oral administration of each test compound mixed with F901318 (10 mg/kg, 3 rats per group). Test compounds and F901318 are dissolved with […]+10% solutol+85% saline, vortexed for 1-2 mins and ultra-sonicated for 5-10 mins to form a colorless clear drug solution. The animals are fasted overnight before oral administration, and resumed feeding 4 hours after administration. After oral administration, pharmacokinetic samples are collected from orbital blood of SD rats at 0.083 h, 0.25 h, 0.5 h, 1 h, 2 h, 4 h, 6 h, 8 h, and 24 h, and three whole blood samples are collected at each time point in a volume of 0.2-0.3 mL. Blood samples are placed on ice immediately after collected, and the plasma is separated by centrifugation within 15 min (centrifugation conditions: 8000 rpm, 1 min, and at room temperature).
# The collected plasma is stored at −20° C. prior to analysis. Transfer 20 μL of plasma sample into an 0.5 mL EP tube, add 200 μL of working internal standard solution (blank group is without internal standard, using the same volume of solvent instead), vortex and mix for 3 min centrifuge at 13500 rpm for 10 min, take 100 μL of supernatant and analyze with LC-MS/MS.
# [3] = test system: Aspergillus fumigatus ATCCMYA-4690 (AF293); test: Survival rate experiment I of mouse bloodstream infection model with Aspergillus fumigatus; format: in vivo; settings: immunosuppressed male CD-1 mouse; for day 7 survival rate: 3 mg/kg orally twice daily for 6 days, started 24 hours after infection; for survival time of mouses: 3 mg/kg orally twice daily
# Description: Test Case 5: Survival Rate Experiment I of Mouse Bloodstream Infection Model with Aspergillus fumigatus • Experimental animals: male CD-1 mouse, 6-8 weeks old, 10 animals per group. • Induction of immunosuppression: the day of infection is defined as day 0, and mouses are injected intraperitoneally with corresponding doses of cyclophosphamide on day −4 (150 mg/kg), day −1 (100 mg/kg) and day 2 (100 mg/kg). • Microbial pathogen: Aspergillus fumigatus ATCCMYA-4690 (AF293). • Collection conditions of inoculum: culture on SDA culture plates, incubate at 25° C. for at least 7 days, collect with PBS+0.1% Tween 20, and count microscopically; • Inoculation level, route and volume: 3.60E+05 CFU/mouse, tail vein injection, injection volume of 100 μL/mouse; • Treatment: Treatment is started 24 hours after infection, and test compounds are dissolved in PEG400 (0.3 mg/mL), and used for administration orally to mouses at 3 mg/kg, twice daily for 6 days. The administrated mouses are observed for 8 hours.
# [4] = test system: Aspergillus fumigatus ATCCMYA-4690 (AF293); test: Survival rate experiment II of mouse bloodstream infection model with Aspergillus fumigatus; format: in vivo; settings: for day 7 survival rate: 3 mg/kg (bid) orally for 6 days, started 24 hours after infection; for survival time of mouses: oral, bid
# Description: Test Case 6: Survival Rate Experiment II of Mouse Bloodstream Infection Model with Aspergillus fumigatus • Animal for experiment: male CD-1 mouse, 6-8 weeks old, 10 animals per group. • Induction of immunosuppression: the day of infection is defined as day 0, and mouses are injected intraperitoneally with corresponding doses of cyclophosphamide on day −4 (150 mg/kg), day −1 (100 mg/kg), and day 2 (100 mg/kg), respectively. • Microbial pathogen: Aspergillus fumigatus ATCCMYA-4690 (AF293). • Collection conditions of inoculum: culture on SDA culture plates, incubate at 25° C. for at least 7 days, collect with PBS+0.1% Tween 20, and count microscopically; • Inoculation level, route and volume: 3.90E+05 CFU/mouse, tail vein injection, injection volume of 100 μL/mouse; • Treatment: Treatment is started 24 hours after infection, and test compounds are dissolved in PEG400 (0.3 mg/mL), […] The administrated mouses are observed for 8 hours.
# [5] = SD, rat, plasma, po, read-out: AUC
# [6] = immunosuppressed male CD-1 mouse
Structure (SMILES),MIC [1] [ng/mL],"AUC [2, 5] [ng·h/mL]","Cmax ([2]; SD, rat, plasma, po) [ng/mL]","Tmax ([2]; SD, rat, plasma, po) [h]","half-life ([2]; SD, rat, plasma, po) [h]",day 7 survival rate [3] [%],"day 7 survival rate [4, 6] [%]","survival rate ([4]; immunosuppressed male CD-1 mouse, 10 mg/kg (bid)) [%]","survival time of mouses [4, 6]","dose dependence of survival ([4]; three doses of 1 mg/kg, 3 mg/kg and 10 mg/kg)",survival time of mouses [3],AUC [2]
Cc1cc(-c2ccccc2)c(C(=O)C(=O)Nc2cc(F)c3c(c2)OC[C@H]2CN(c4ncc(F)cn4)CCN32)n1C [Example 5],4,16000,1930,1,4.29,0,–,–,–,–,–,–
"Cc1cc(-c2ccccc2)c(C(=O)C(=O)Nc2ccc3c(c2)C[C@H]2CN(c4ncc(F)cn4)CCN32)n1C [Example 33, (S)-2-(1,5-dimethyl-3-phenyl-1H-pyrrol-2-yl)-N-(2-(5-fluoropyrimidin-2-yl)-1,2,3,4,10,10a-hexahydropyrazino[1,2-a]indol-8-yl)-2-oxoacetamide]",8,36100,3490,1,7.52,40,30,80,prolong the survival time,dose-dependent relationship,prolong the survival time,–
"Cc1cc(-c2ccccc2)c(C(=O)C(=O)Nc2ccc(N3CCN(c4ncc(F)cn4)CC3)cc2)n1C [Example F901318, reference compound]",4,7540,–,–,–,0,0,–,prolong the survival time,–,prolong the survival time,9170.038 ng·h/mL and 7652.703 ng·h/mL and 9641.325 ng·h/mL
